We go through 42 molecules from patent publication US6586441B2, “Adenosine receptor ligands and their use in the treatment of disease” (Hoffman-La Roche Inc., priority 2000, dated 2003).

The assay concerns the target T1, human adenosine A2A receptor (Homo sapiens, UniProt P29274).
T1 construct: expressed in transfected cells; host or cells: CHO cells, semliki forest virus expression system; membrane preparation
The assay can be described thus: Human adenosine A2A receptor [3H]-SCH-58261 binding assay. The method, then: The gene encoding human adenosine A2A receptor was recombinantly introduced and expressed in chinese hamster ovary (CHO) cells using the semliki forest virus expression system. Cells were harvested, washed twice by centrifugation, homogenised and again washed by centrifugation. The final washed membrane pellet was suspended in a Tris (50 mM) buffer containing 120 mM NaCl, 5 mM KCl, 2 mM CaCl2 and 10 mM MgCl2 (pH 7.4) (buffer A). The [^3H]-SCH-58261 (Dionisotti et al., 1997, Br. J. Pharmacol. 121, 353; 1 nM) binding assay was carried out in 96-well plates in the presence of 2.5 μg of membrane protein, 0.5 mg of Ysi-poly-1-lysine SPA beads and 0.1 U adenosine deaminase in a final volume of 200 μl of buffer A. Non-specific binding was defined using xanthine amine congener (XAC; […]). Compounds were tested at 10 concentrations from 10 μM-0.3 nM. All assays were conducted in duplicate and repeated at least two times. Assay plates were incubated for 1 hour at room temperature before centrifugation and then bound ligand determined using a Packard Topcount scintillation counter. IC50 values were calculated using a non-linear curve fitting program and Ki values calculated using the Cheng-Prussoff equation.

[1] abbreviates: human A2a receptor, membranes of CHO cells, [3H]-SCH-58261, read-out: pKi (affinity to the human A2a receptor) (converted).

The structures appear in SMILES notation. Counter-ions that a name gives are not always drawn. Like-named read-outs stand apart in the source and are kept apart here.

T1 sequence (P29274 whole entry): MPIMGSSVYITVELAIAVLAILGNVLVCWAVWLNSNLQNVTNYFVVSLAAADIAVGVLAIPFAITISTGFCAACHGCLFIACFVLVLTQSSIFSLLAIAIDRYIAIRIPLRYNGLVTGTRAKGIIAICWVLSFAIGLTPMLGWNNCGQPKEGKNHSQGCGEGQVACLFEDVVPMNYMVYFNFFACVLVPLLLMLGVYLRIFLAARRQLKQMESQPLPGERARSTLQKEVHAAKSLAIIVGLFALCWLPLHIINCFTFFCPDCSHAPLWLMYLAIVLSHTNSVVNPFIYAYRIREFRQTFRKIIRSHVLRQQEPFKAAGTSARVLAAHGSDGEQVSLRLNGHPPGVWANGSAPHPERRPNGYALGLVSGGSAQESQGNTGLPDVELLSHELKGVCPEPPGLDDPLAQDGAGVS

With `N#Cc1c(NCC2CCc3ccccc3N2)nc(N)nc1-c1ccco1` (racemic) [Example 299, (RS)-2-Amino-4-furan-2-yl-6-[(1,2,3,4-tetrahydro-quinolin-2-ylmethyl)-amino]-pyrimidine-5-carbonitrile], the Ki under setting [1] is 6.31 nM. For the molecule `CSc1nc(N)nc(-c2ccc3c(c2)OCCO3)c1C#N` [Example 23, 2-Amino-4-(2,3-dihydro-benzo[1,4]dioxin-6-yl)-6-methylsulfanyl-pyrimidine-5-carbonitrile], under setting [1], the Ki was 9.12 nM. Turning to `N#Cc1c(-c2ccco2)nc(N)nc1N1CCCCC1` [Example 41, 2-Amino-4-furan-2-yl-6-piperidin-1-yl-pyrimidine-5-carbonitrile], the Ki under setting [1] is 8.51 nM.

As to `N#Cc1c(NCCCc2ccccc2)nc(N)nc1-c1ccco1` [Example 44, 2-Amino-4-furan-2-yl-6-(3-phenyl-propylamino)-pyrimidine-5-carbonitrile], the Ki under setting [1] was 2.51 nM. On to `N#Cc1c(OCc2ccccc2)nc(N)nc1-c1ccco1` [Example 47, 2-Amino-4-benzyloxy-6-furan-2-yl-pyrimidine-5-carbonitrile], for which the Ki under setting [1] was 3.8 nM. Still for that read-out and setting: the same measure for `N#Cc1c(SCc2ccccc2)nc(N)nc1-c1ccco1` [Example 52, 2-Amino-4-benzylsulfanyl-6-furan-2-yl-pyrimidine-5-carbonitrile]: 3.98 nM. In the case of `N#Cc1c(OCCc2ccccc2)nc(N)nc1-c1ccco1` [Example 53, 2-Amino-4-furan-2-yl-6-phenethyloxy-pyrimidine-5-carbonitrile], the Ki under setting [1] was 6.31 nM. Still for that read-out and setting: the same measure for `N#Cc1c(OCCCc2ccccc2)nc(N)nc1-c1ccco1` [Example 54, 2-Amino-4-furan-2-yl-6-(3-phenyl-propoxy)-pyrimidine-5-carbonitrile]: 7.41 nM; for `N#Cc1c(OC2CCCCC2)nc(N)nc1-c1ccco1` [Example 55, 2-Amino-4-cyclohexyloxy-6-furan-2-yl-pyrimidine-5-carbonitrile]: 7.41 nM; for `N#Cc1c(NCCc2ccc(O)cc2)nc(N)nc1-c1ccco1` [Example 58, 2-Amino-4-furan-2-yl-6-[2-(4-hydroxy-phenyl)-ethylamino]-pyrimidine-5-carbonitrile]: 6.46 nM. As to `CCCCSc1nc(N)nc(-c2ccco2)c1C#N` [Example 60, 2-Amino-4-butylsulfanyl-6-furan-2-yl-pyrimidine-5-carbonitrile], the Ki under setting [1] was 4.57 nM.

On to `CC(C)Oc1nc(N)nc(-c2ccco2)c1C#N` [Example 61, 2-Amino-4-furan-2-yl-6-isopropoxy-pyrimidine-5-carbonitrile], for which the Ki under setting [1] was 6.92 nM.

In the case of `N#Cc1c(OCc2ccccn2)nc(N)nc1-c1ccco1` [Example 76, 2-Amino-4-furan-2-yl-6-(pyridin-2-ylmethoxy)-pyrimidine-5-carbonitrile], under setting [1], the Ki is 2.09 nM. On to `N#Cc1c(SCCCc2ccccc2)nc(N)nc1-c1ccccc1` [Example 85, 2-Amino-4-phenyl-6-(3-phenyl-propylsulfanyl)-pyrimidine-5-carbonitrile], for which the Ki under setting [1] was 7.94 nM. Regarding `N#Cc1nc(N)nc(-c2ccco2)c1C#N` [Example 94, 2-Amino-6-furan-2-yl-pyrimidine-4,5-dicarbonitrile], the Ki under setting [1] is 9.77 nM. Same read-out and setting: the same measure for `N#Cc1c(OCCc2ccccc2)nc(N)nc1-c1ccccc1` [Example 104, 2-Amino-4-phenethyloxy-6-phenyl-pyrimidine-5-carbonitrile]: 3.98 nM; for `N#Cc1c(OCc2ccccn2)nc(N)nc1-c1ccccc1` [Example 105, 2-Amino-4-phenyl-6-(pyridin-2-ylmethoxy)-pyrimidine-5-carbonitrile]: 7.41 nM. Still for that read-out and setting: the figure for `COc1ccc(CCNc2nc(N)nc(-c3ccco3)c2C#N)cc1` [Example 144, 2-Amino-4-furan-2-yl-6-[2-(4-methoxy-phenyl)-ethylamino]-pyrimidine-5-carbonitrile] is 2.82 nM.

Turning to `N#Cc1c(-c2ccccc2)nc(N)nc1-c1ccco1` [Example 148, 2-Amino-4-furan-2-yl-6-phenyl-pyrimidine-5-carbonitrile], the Ki is 6.46 nM. For `Nc1nc(OCc2ccccn2)c(Br)c(-c2ccco2)n1` [Example 168, 5-Bromo-4-furan-2-yl-6-(pyridin-2-ylmethoxy)-pyrimidin-2-yl-amine], the Ki under setting [1] was 9.33 nM.

With `N#Cc1c(OCc2ccccn2)nc(N)nc1-c1cccs1` [Example 206, 2-Amino-4-(pyridin-2-ylmethoxy)-6-thiophen-2-yl-pyrimidine-5-carbonitrile], under setting [1], the Ki is 9.55 nM.

On to `Nc1nc(NCCCc2ccccc2)c(Br)c(-c2ccco2)n1` [Example 208, 5-Bromo-6-furan-2-yl-N4-(3-phenyl-propyl)-pyrimidine-2,4-diamine hydrochloride], for which, under setting [1], the Ki was 9.12 nM. For `N#Cc1c(OCc2cccnc2)nc(N)nc1-c1ccco1` [Example 219, 2-Amino-4-furan-2-yl-6-(pyridin-3-ylmethoxy)-pyrimidine-5-carbonitrile], the Ki under setting [1] is 5.89 nM.

With `Nc1nc(OCCCc2ccccc2)c(Br)c(-c2ccco2)n1` [Example 230, 5-Bromo-4-furan-2-yl-6-(3-phenyl-propoxy)-pyrimidin-2-yl-amine], the Ki under setting [1] was 1.66 nM. In the case of `N#Cc1c(OCCNc2ccccc2)nc(N)nc1-c1ccco1` [Example 231, 2-Amino-4-furan-2-yl-6-(2-1-phenylamino-ethoxy)-pyrimidine-5-carbonitrile], the Ki under setting [1] is 8.13 nM.

Take `N#Cc1c(SCCc2ccccc2)nc(N)nc1-c1ccco1` [Example 233, 2-Amino-4-furan-2-yl-6-phenethylsulfanyl-pyrimidine-5-carbonitrile]: the Ki under setting [1] is 2.75 nM. Take `N#Cc1c(SCCCc2ccccc2)nc(N)nc1-c1ccco1` [Example 234, 2-Amino-4-furan-2-yl-6-(3-phenyl-propylsulfanl)-pyrimidine-5-carbonitrile]: the Ki under setting [1] is 5.5 nM. The same measure, in the same setting: the same measure for `N#Cc1c(NCCOc2ccccc2)nc(N)nc1-c1ccco1` [Example 235, 2-Amino-4-furan-2-yl-6-(2-phenoxy-ethylamino)-pyrimidine-5-carbonitrile]: 3.47 nM; for `Cc1cccc(COc2nc(N)nc(-c3ccco3)c2C#N)n1` [Example 237, 2-Amino-4-furan-2-yl-6-(6-methyl-pyridin-2-ylmethoxy)-pyrimidine-5-carbonitrile]: 2.95 nM. Regarding `N#Cc1c(OCCc2ccccn2)nc(N)nc1-c1ccco1` [Example 241, 2-Amino-4-furan-2-yl-6-(2-pyridin-2-yl-ethoxy)-pyrimidine-5-carbonitrile], the Ki under setting [1] was 2.19 nM. Turning to `Cc1ccc(-c2nc(N)nc(NCc3ccccc3)c2C#N)o1` [Example 245, 2-Amino-4-benzylamino-6-(5-methyl-furan-2-yl)-pyrimidine-5-carbonitrile], the Ki under setting [1] is 5.5 nM. For `Cc1cccc(COc2nc(N)nc(-c3ccc(C)o3)c2C#N)n1` [Example 246, 2-Amino-4-(5-methyl-furan-2-yl)-6-(6-methyl-pyridin-2-ylmethoxy)-pyrimidine-5-carbonitrile], the Ki under setting [1] was 1.86 nM. With `Cc1ccc(-c2nc(N)nc(OCc3ccccn3)c2C#N)o1` [Example 247, 2-Amino-4-(5-methyl-furan-2-yl)-6-(pyridin-2-ylmethoxy)-pyrimidine-5-carbonitrile], the Ki under setting [1] is 2.14 nM. Same read-out and setting: the same measure for `Nc1nc(OCCCc2ccccc2)c(I)c(-c2ccco2)n1` [Example 267, 4-Furan-2-yl-5-iodo-6-(3-phenyl-propoxy)-pyrimidin-2-yl-amine]: 4.37 nM; for `Nc1nc(SCCc2ccccc2)c(Br)c(-c2ccco2)n1` [Example 269, 5-Bromo-4-furan-2-yl-6-phenethylsulfanyl-pyrimidin-2-yl-amine]: 7.76 nM.

Take `N#Cc1c(OCC=Cc2ccccc2)nc(N)nc1-c1ccco1` [Example 278, 2-Amino-4-furan-2-yl-6-(3-phenyl-allyloxy)-pyrimidine-5-carbonitrile]: the Ki under setting [1] was 3.72 nM.

For `Nc1nc(OCC=Cc2ccccc2)c(Br)c(-c2ccco2)n1` [Example 280, 5-Bromo-4-furan-2-yl-6-(3-phenyl-allyloxy)-pyrimidin-2-yl-amine], the Ki under setting [1] was 9.33 nM.

On to `N#Cc1c(NCc2ccccn2)nc(N)nc1-c1ccco1` [Example 283, 2-Amino-4-furan-2-yl-6-[(pyridin-2-ylmethyl)-amino]-pyrimidine-5-carbonitrile], for which, under setting [1], the Ki was 5.89 nM.

As for `N#Cc1c(SCc2ccccn2)nc(N)nc1-c1ccco1` [Example 284, 2-Amino-4-furan-2-yl-6-(pyridin-2-ylmethylsulfanyl)-pyrimidine-5-carbonitrile], the Ki under setting [1] was 3.89 nM. As to `Nc1nc(OCc2ccccc2)c([N+](=O)[O-])c(-c2ccco2)n1` [Example 286, 4-Benzyloxy-6-furan-2-yl-5-nitro-pyrimidin-2-yl-amine], the Ki under setting [1] is 9.55 nM. As for `Cc1cccc(CNc2nc(N)nc(-c3ccco3)c2C#N)c1` [Example 289, 2-Amino-4-furan-2-yl-6-(3-methyl-benzylamino)-pyrimidine-5-carbonitrile], the Ki under setting [1] is 3.72 nM. For the molecule `COc1cccc(CNc2nc(N)nc(-c3ccco3)c2C#N)c1` [Example 291, 2-Amino-4-furan-2-yl-6-(3-methoxy-benzylamino)-pyrimidine-5-carbonitrile], under setting [1], the Ki is 3.31 nM.
